Source: PubChem BioAssay (NCI)
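Dose response: 5 concentrations. Exposure: 48 h. Format: 96-well plates. Endpoint: linear interpolation; highest concentration if not reached. At the TGI there is no net growth.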

Experiments:
Experiment in all cases: inhibition of tumour cell growth, NCI panel, 48 h
786-0 renal = system: 786-0 renal
A498 renal = system: A498 renal
A549 NSCLC = system: A549 NSCLC
ACHN renal = system: ACHN renal
BT-549 breast = system: BT-549 breast
CAKI-1 renal = system: CAKI-1 renal
COLO 205 colon = system: COLO 205 colon
DU-145 prostate = system: DU-145 prostate
EKVX NSCLC = system: EKVX NSCLC
HCC-2998 colon = system: HCC-2998 colon
HCT-116 colon = system: HCT-116 colon
HCT-15 colon = system: HCT-15 colon
HOP-62 NSCLC = system: HOP-62 NSCLC
HOP-92 NSCLC = system: HOP-92 NSCLC
HS 578T breast = system: HS 578T breast
HT29 colon = system: HT29 colon
IGROV1 ovarian = system: IGROV1 ovarian
K-562 leukemia = system: K-562 leukemia
KM12 colon = system: KM12 colon
LOX IMVI melanoma = system: LOX IMVI melanoma
M14 melanoma = system: M14 melanoma
MALME-3M melanoma = system: MALME-3M melanoma
MCF7 breast = system: MCF7 breast
MDA-MB-231 breast = system: MDA-MB-231 breast
MDA-MB-435 = system: MDA-MB-435
MDA-N = system: MDA-N
MOLT-4 leukemia = system: MOLT-4 leukemia
NCI-H226 lung = system: NCI-H226 lung
NCI-H23 lung = system: NCI-H23 lung
NCI-H460 lung = system: NCI-H460 lung
NCI-H522 lung = system: NCI-H522 lung
NCI/ADR-RES ovarian = system: NCI/ADR-RES ovarian
OVCAR-3 ovarian = system: OVCAR-3 ovarian
OVCAR-4 ovarian = system: OVCAR-4 ovarian
OVCAR-5 ovarian = system: OVCAR-5 ovarian
OVCAR-8 ovarian = system: OVCAR-8 ovarian
PC-3 prostate = system: PC-3 prostate
RPMI-8226 leukemia = system: RPMI-8226 leukemia
RXF 393 renal = system: RXF 393 renal
SF-268 CNS = system: SF-268 CNS
SF-295 CNS = system: SF-295 CNS
SF-539 CNS = system: SF-539 CNS
SK-MEL-2 melanoma = system: SK-MEL-2 melanoma
SK-MEL-28 melanoma = system: SK-MEL-28 melanoma
SK-MEL-5 melanoma = system: SK-MEL-5 melanoma
SK-OV-3 ovarian = system: SK-OV-3 ovarian
SN12C renal = system: SN12C renal
SNB-19 CNS = system: SNB-19 CNS
SNB-75 CNS = system: SNB-75 CNS
SR leukemia = system: SR leukemia
SW-620 colon = system: SW-620 colon
T-47D breast = system: T-47D breast
TK-10 renal = system: TK-10 renal
U251 CNS = system: U251 CNS
UACC-257 melanoma = system: UACC-257 melanoma
UACC-62 melanoma = system: UACC-62 melanoma
UO-31 renal = system: UO-31 renal

Measured: TGI

N#CNC(N)=Nc1ccc(Cl)cc1
> 100 µM: all assays above

CCON1CC(C(=O)OC)=C(O)C1=O
not listed: LOX IMVI melanoma | NCI-H226 lung | SF-539 CNS | SN12C renal | SR leukemia
> 100 µM: all other assays above
